One assay concerns primary rat hepatocytes. The assay is described as follows: Primary rat hepatocyte 3H-thymidine incorporation. The assay is classed as cell-based. To be noted: subconfluent primary rat hepatocytes, 36 hours, serum-free. The protocol: As a first indication of BMP-9 effects on confluent, serum starved HepG2 cells, cell proliferation is examined as determined by ^3 H-thymidine incorporation and cell counting. HepG2 cells are plated at […] in 96 well plates and cultured for 48 hours in DME/0.1% FCS to synchronize the cell cycle are treated for 24 hours with or without BMP-9 in the presence of 0.1% FCS. In ^3 H-thymidine incorporation assays, ^3 H-thymidine was included during the last 4 hours of treatment and cellular DNA was collected with a 96 well plate cell harvester. Proliferation was assayed by quantifying ethanol-precipitable ^3 H-thymidine incorporation by liquid scintillation counting. For cell counting assays, cells were trypsinized and counted with a hemacytometer. […] BMP-9 stimulates ^3 H-thymidine incorporation in HepG2 cells approximately five fold.
To determine if this proliferative effect of BMP-9 was unique to the HepG2 liver tumor cell line, primary rat hepatocytes were tested for effects of BMP-9 on ^3 H-thymidine incorporated as shown in FIG. 4.

Assay [1] concerns BMP-9 receptors expressed on HepG2 cells. Briefly: 125I-BMP-9 binding to HepG2 cells. The conditions noted are these: HepG2 cells, 125I-BMP-9 and 250-fold excess of unlabeled ligand. The method, then: BMP-9 responsiveness in parenchymal liver cells is tested by screening four liver cell lines for their ability to bind iodinated, CHO-derived BMP-9. […] Specific binding of BMP-9 to HepG2 cells is carried out by incubating HepG2 cells grown to confluence in Dulbecco's Modified Eagle's Medium (DME) containing 10% heat-inactivated fetal calf serum (FCS) on gelatinized 6 well plates with 2 ng/ml ^125 I-BMP-9 and increasing concentrations of unlabelled BMP-9 in binding buffer (136.9 mM NaCl, 5.37 mM KCl, 1.26 mM CaCl2, 0.64 mM MgSO4, 0.34 mM Na2 HPO4, 0.44 mM KH2 PO4, 0.49 mM MgCl2, 25 mM HEPES and 0.5% BSA, pH 7.4) for 20 hours at 4° C. to achieve binding equilibrium. This incubation follows a one hour preincubation at 37° C. in binding buffer alone. For crosslinking experiments, the cells were incubated with 500 μM disuccinimidyl suberate for 20 minutes at […] following binding. Cell extracts were analyzed on SDS-PAGE. […] To test the binding specificity of the receptors for BMP-9, HepG2 cells were incubated with ^125 I-BMP-9 and a 250-fold excess of different unlabeled ligands.

In assay [2] the test system is Articular cartilage explants from calf carpal joints. The assay is described as follows: Articular cartilage assay (proteoglycan synthesis, sulfate incorporation). Type of assay: cell-based. To be noted: 100 ng/ml, calf articular cartilage explants. The method, then: The effect of BMP-9 on articular cartilage proteoglycan and DNA synthesis is assayed to determine if BMP-9 is involved in the regulation of metabolism of differentiated articular cartilage.
Articular cartilage explants from calf carpal joints are maintained in DMEM with 50 μg/ml ascorbate, 4 mM glutamine and antibiotics for 3 days. Cytokines (rhBMP-2, rhBMP-4, rhBMP-6 and rhBMP-9, IGF-1, bFGF (1-1000 ng/ml), and TGFβ (1-100 ng/ml)) are added to the medium and culture is continued for 3 more days. Medium is changed daily. Twenty-four hours prior to harvest, explants are pulsed with 50 μCi/ml ^35 SO4 or 25 μCi/ml ^3 H-thymidine. Explants are solubilized and separation of free isotope is performed by gel chromatography. Total DNA of each explant is measured by a spectrophotometric assay.

The next assay deals with IMCD-3 cells. Briefly: IMCD-3 cell condensation and tubulogenesis in collagen matrix. Type of assay: cell-based. The conditions noted are these: IMCD-3 cells in 3-dimensional collagen gel, 100 ng/ml, 6 days, serum-free. The protocol:
Several cell lines are tested for BMP-9 responsiveness in vitro. Cell proliferation, as indicated by [^3 H]thymidine incorporation, is determined in cell lines derived from kidney and lung. Cell proliferation is determined by measuring [^3 H]thymidine incorporation in subconfluent cells treated for 24 h with or without growth factors. NRK-52E (ATCC CRL 1571), WI-38 (ATCC CCL-75), CCD-11Lu (ATCC CCL-202), CCD-16Lu (ATCC CCL-204), and A-549 (ATCC CCL-185) cell lines are placed at 10^4 cells/well in 96 well plates and assayed for [^3 H]thymidine incorporation as described above. IMCD-3 cells (ATCC #CRL-2123) are cultured in a collagen matrix as described by Barros et al., PNAS USA 92:4412-4416 (1995), and treated with growth factors for 6 days to allow tubule formation.
In contrast, BMP-9 appeared to stimulate proliferation in several fibroblast cell lines derived from lung. […] The effect of rhBMP-9 on tubulogenesis was examined in IMCD-3 cells, another epithelial kidney cell line. […] It is therefore contemplated that both lung and kidney cells are physiological targets for BMP-9.

In the case of “EGF: epidermal growth factor (NSDSECPLSHDGYCLHDGVCMYIEALDKYACNCVVGYIGERCQYRDLKWWELR; UniProt P01133 971-1023, looked up)”, the 3H-thymidine incorporation entry in the assay on primary rat hepatocytes is recorded as “markedly”.

Turning to TGF-β1: transforming growth factor β1, the “crossreactivity of BMP-9 receptors with unlabeled ligand” value in assay [1] is on record as “no crossreactivity”. Also, the 3H-thymidine incorporation result with primary rat hepatocytes was “inhibitory, not stimulatory”.

For TGFβ, the proteoglycan synthesis result in assay [2] is given as “significantly more active in stimulating proteoglycan synthesis”.

As to “rhHGF: recombinant human HGF, inducer of tubulogenesis in IMCD-3 cells”, the “cell condensation and tubulogenesis” value with IMCD-3 cells was “induced a marked branching tubulogenesis”.

For the origin of these results see patent US6034062A, “Bone morphogenetic protein (BMP)-9 compositions and their uses” (Genetics Institute, Inc., priority 1997, dated 2000).
